Patent US20250312440A1, “CHEMICAL SCREEN OF MODULATORS FOR VACCINE ADJUVANTS” (THE UNIVERSITY OF CHICAGO, priority 2022, published 2025)

Legend:
human THP-1 monocytes = assay: Cytokine level screening in THP-1 cells (AlphaLISA/AlphaPlex, modulator + agonist); format: cell-based
Protocol: THP-1 cells were seeded at 50,000 cells per well in 45 μL of biotin-free RPMI+5% HI-FBS in clear 384 well plates. Following 24h incubation, 50 nL of 10 mM modulator libraries were added by Janus G3 via pintool to experimental wells (cols 3-22) for a final concentration of 10 μM. After 1 hour, 5 μL of agonist was added via a MultiDrop Combi liquid handler (col 3-23). The following day, 5 μL of supernatant was transferred to white low volume ProxiPlates. 10 μL of a prepared acceptor bead (10 μg/mL final conc), biotinylated antibody (1 nM final conc) mixture was added via liquid handler to the cell supernatant. After 1 hr incubation at RT, 5 μL of donor beads (40 μg/mL final conc) were added in the dark. After an additional 1 hr incubation, plates were read on a plate reader with AlphaPlex filters for europium (615 nm) and terbium (545 nm) emission. A separate plate was run each day containing a standard curve of known analyte for interpolation purposes.
Cytokines and chemokines are a broad category of secreted proteins important for adjuvants in regulating adaptive immunity (23). However, excessive production of cytokines by adjuvants can result in direct tissue damage and are correlated with vaccine tolerability (24, 25). To validate the findings of the primary screening results and to explore the impact on downstream immune outcomes, the inventors measured levels of six cytokines and chemokines involved in inflammation and adaptive responses (IL-12p40, IP-10, IL-1b, CCL4, TNF-α, and IFN-b, Table 4). The inventors measured cytokine expression through AlphaLISA, an assay well-suited to high throughput due to its large dynamic range, in situ measurement, and broad range of cytokines. It has been previously used to investigate small molecule biological inhibitors (26-28).
Cell supernatants were collected and cytokines were measured in three duplex measurements (FIG. 11A). Similarly, the inventors optimized standard curve ranges, crosstalk correction factors, incubation times and other factors of the secondary screen (FIGS. 11B-11D). As in the inventors' primary screen, modulators enhance or inhibit cytokine production among all six cytokines and for each agonist independently (FIGS. 4A-4G, FIG. 11E). The distributions within cytokines vary based on the dynamic range and Z-factor obtained for each cytokine and agonist studied (Table 5). High throughput screening utilizes Z-factors as a proxy for statistical reliability of an assay, due to the dynamic range of the positive controls and the inherent cytokines secreted for each agonist, a Z-factor score greater than zero was not obtained for certain agonists/[…] combinations. Since each agonist produced differing levels of cytokine that were sometimes at the limits of standard curve, amending this assay to a high throughout nature was challenging. […] Since the inventors measured fold-change and reduce dimensionality further in analysis, this approach was adequate to compare compounds within the inventors' dataset for down-selection.
After considering categorical and ranked scoring systems, the inventors decided the best representation of modulator performance would need to preserve cytokine changes but do so by normalizing for each cytokine's and agonist's dynamic range (37). Because of the differences in dynamic range of all the inventors' six cytokines, the inventors sought to normalize the data to ensure no distribution would bias the inventors' results. Thus, the inventors transformed each cytokine's distributions to a range from −1 to 1 (FIG. 5A). Unlike the previous screen, the inventors considered increases and decreases in cytokine responses separately when selecting molecules for vaccination studies. In the vaccine score, a promising candidate would need to produce minimal pro-inflammatory cytokines while increasing IFN-b and chemokine production (24, 25). Additionally, the inventors might prioritize the importance of one cytokine's modulation over another. […]

IL-6 and TNF-α = conditions: with CPG adjuvant; cited from earlier work
TNF-α = assay: Plasma cytokine analysis 1 hr after OVA vaccination with agonist + modulator; format: in vivo, mice; conditions: 1 hr after vaccination, CpG 50 μg + modulator 1.5 μmol
Protocol: All animal procedures were performed under a protocol approved by the University of Chicago Institutional Animal Care and Use Committee (IACUC). 6-to-8-week-old C57/B6 female mice were purchased from the Jackson laboratory. All vaccinations were administered intramuscularly in the hind leg. Blood was collected from the submandibular vein at time points indicated.
Mice were lightly anesthetized with isoflurane and injected intramuscularly in the hind leg with an injection volume of 50 μL containing antigen, adjuvant, and a DMSO/AddaVax combination. Antigen dose was as follows: OVA (100 μg)). Agonists doses were as follows: Flagellin, 10 μg; R848, 50 μg; CpG, 50 μg. Modulators were added at 1.5 μmol.
Blood was collected from mice at specified time points in 0.2 mL of heparin-coated collection tubes (VWR Scientific). […] Plasma was analyzed using Bio-Legend's LegendPlex™ Mouse Inflammation Cytokine Panel (13-Plex) according to the manufacturer's protocol. Samples were analyzed using an ACEA NovoCyte Flow Cytometer. Data were analyzed using LEGENDplex™ Data Analysis Software Suite and GraphPad Prism.
The inventors used the vaccine score to select modulators to test in a murine in vivo model. […] The inventors monitored inflammatory cytokine levels one hour following initial injections and monitored antigen specific antibody levels at the indicated timepoints post-boost (FIG. 6A). […]

[1] = THP-1, 10 μM modulator, across agonists
[2] = THP-1, 10 μM modulator, across receptors studied

With CN(C)c1ccc2c(c1)Sc1cc(N(C)C)ccc1N2.CS(=O)(=O)O.CS(=O)(=O)O [TRx0237(LMTX) mesylate] the “IFN-b production, modulator+agonist vs agonist alone” value (human THP-1 monocytes; [1]) was “enhance IFN-b secretion across all agonists studied” and the “TNF-α enhancement using cGAMP” value (human THP-1 monocytes; THP-1, 10 μM modulator, cGAMP) was “up to 36 fold”.

In the case of COc1cc(CNC(=O)CCCC/C=C/C(C)C)ccc1O [capsaicin], the “pro-inflammatory systemic IL-6 and TNF-α levels” value (IL-6 and TNF-α) is listed as “reduce”.

With O=c1cc(-c2cccc3c2Sc2ccccc2S3)oc(N2CCOCC2)c1 [compound 3] the “systemic TNF-α for CpG” value (TNF-α) was ~0.

For C=CCc1ccc(O)c(-c2ccc(O)c(CC=C)c2)c1 [honokiol], the “pro-inflammatory systemic IL-6 and TNF-α levels” value (IL-6 and TNF-α) is listed as “reduce”.

With CS[C@@]1(C(=O)Nc2ccc3[nH]nc(-c4ccc(OC(C)C)nc4)c3c2)CCN(CC(=O)N2CC=C(c3ccc(-c4ncn(C)n4)cc3)CC2)C1 [MK-8353] the “IFN-b production, modulator+agonist vs agonist alone” value (human THP-1 monocytes; [1]) was “ablates”, the “IL-12 production, modulator+agonist vs agonist alone” value (human THP-1 monocytes; [1]) was “ablates” and the “IP-10 production, modulator+agonist vs agonist alone” value (human THP-1 monocytes; [1]) was “ablates”. The IL-1b enhancement (human THP-1 monocytes; [2]) was “up to 100 fold” and the TNF-α enhancement (human THP-1 monocytes; [2]) was “up to 100 fold”.

In the case of Cc1ccc(NC(=O)c2ccc(CN3CC[C@H](N(C)C)C3)c(C(F)(F)F)c2)cc1Nc1nccc(-c2cncnc2)n1 [Bafetinib], the “difference in enhancement of IP-10 and IFN-b between agonists” value (human THP-1 monocytes; Pam3, Pam2 vs cGAMP) is reported as ~2 orders of magnitude.

With CN1CCN(C2CCN(C(=O)Nc3cc(Oc4ccc(NC(=O)C5(C(=O)Nc6ccc(F)cc6)CC5)c(F)c4)ccn3)CC2)CC1 [compound 2, Golvatinib] the “systemic TNF-α for CpG” value (TNF-α) was ~0.
